Target: T1, SpCas9:gRNA ribonucleoprotein complex (Streptococcus pyogenes serotype M1, UniProt Q99ZW2)
T1 construct: His6 (N, cleaved yes); made in house; host or cells: E. coli BL21 Star (DE3)
Assay: 19F NMR binding assay
Details: [Ligand] 50 μM
Method: (§1) NMR binding assay. All samples were prepared with 50 μM BRD7087 in 20 mM Tris buffer (pH=7.4) with varying concentrations of SpCas9:gRNA in a 3 mm NMR tube. Experiments were performed on a 600 MHz (19F: 564.71 MHz) BRUKER Avance™ III NMR spectrometer equipped with a 5 mm QCI-F CryoProbe™ and a SampleJet for automated sample handling. To acquire spectra, a standard one-pulse 19F experiment with WALTZ-16 for proton decoupling during acquisition, a 5 second recycle delay, and 256 scans was used. All spectra were recorded at 280 K. NMR data were apodized with a 1 Hz exponential function prior to Fourier transformation. All spectra were baseline corrected; peak widths and intensities were extracted using the automated line-fitting feature provided with the MNova software package. Determination of the value of Kd was accomplished using least squares fitting to the expression given in Equation 8 in the paper by Shortridge et al.2.
Kd values obtained by NMR rely on the assumption that ligand binding is in fast-exchange, which typically holds true for ligands with Kd in the 0.5 μM to 20 mM range.
as §1, with “(^19F:” for “(19F:”, “^19F” for “19F”, “al.^2.” for “al.2.”

T1 sequence (Q99ZW2 whole entry, one chain of several): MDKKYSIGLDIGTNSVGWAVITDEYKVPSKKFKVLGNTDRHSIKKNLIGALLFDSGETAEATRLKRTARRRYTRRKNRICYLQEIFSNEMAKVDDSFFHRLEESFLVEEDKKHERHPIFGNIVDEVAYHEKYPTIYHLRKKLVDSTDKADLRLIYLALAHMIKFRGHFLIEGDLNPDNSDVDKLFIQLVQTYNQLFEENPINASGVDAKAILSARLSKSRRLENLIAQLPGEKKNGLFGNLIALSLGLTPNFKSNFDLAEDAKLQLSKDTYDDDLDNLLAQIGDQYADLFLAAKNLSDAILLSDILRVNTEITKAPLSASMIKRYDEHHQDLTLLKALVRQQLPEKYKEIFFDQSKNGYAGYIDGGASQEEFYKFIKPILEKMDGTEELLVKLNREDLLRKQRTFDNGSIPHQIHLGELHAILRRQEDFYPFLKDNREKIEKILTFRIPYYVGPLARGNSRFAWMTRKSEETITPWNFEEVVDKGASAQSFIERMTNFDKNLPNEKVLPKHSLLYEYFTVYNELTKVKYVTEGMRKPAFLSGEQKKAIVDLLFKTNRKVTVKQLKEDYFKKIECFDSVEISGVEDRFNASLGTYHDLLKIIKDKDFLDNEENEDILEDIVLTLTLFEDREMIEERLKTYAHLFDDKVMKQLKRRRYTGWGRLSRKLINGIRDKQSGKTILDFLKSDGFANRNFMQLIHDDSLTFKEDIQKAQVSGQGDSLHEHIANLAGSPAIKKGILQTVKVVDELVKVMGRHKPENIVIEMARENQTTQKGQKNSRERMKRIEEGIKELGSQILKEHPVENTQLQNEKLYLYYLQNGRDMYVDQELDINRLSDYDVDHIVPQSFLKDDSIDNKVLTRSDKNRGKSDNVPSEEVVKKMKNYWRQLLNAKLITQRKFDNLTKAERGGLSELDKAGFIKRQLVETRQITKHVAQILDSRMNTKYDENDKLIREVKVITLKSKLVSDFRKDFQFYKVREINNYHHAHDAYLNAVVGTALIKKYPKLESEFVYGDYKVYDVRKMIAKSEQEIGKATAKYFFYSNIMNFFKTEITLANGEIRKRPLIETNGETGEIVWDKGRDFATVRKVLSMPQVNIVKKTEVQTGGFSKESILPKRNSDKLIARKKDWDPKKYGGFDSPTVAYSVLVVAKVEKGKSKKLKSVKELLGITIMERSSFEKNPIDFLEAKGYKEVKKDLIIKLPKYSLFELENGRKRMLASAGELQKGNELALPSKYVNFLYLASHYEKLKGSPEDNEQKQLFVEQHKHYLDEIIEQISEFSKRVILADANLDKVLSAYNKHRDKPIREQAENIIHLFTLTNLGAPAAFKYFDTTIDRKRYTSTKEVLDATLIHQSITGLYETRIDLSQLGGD

OC[C@H]1Nc2ccc(-c3cccc(F)c3)cc2[C@H]2[C@@H]1CCN2Cc1ccncc1 [BRD7087, ((3aR,4S,9bR)-8-(3-Fluorophenyl)-1-(pyridin-4-ylmethyl)-2,3,3a,4,5,9b-hexahydro-1H-pyrrolo[3,2-c]quinolin-4-yl)methanol]
LW ([Protein:RNA] 0 μM): 4.1 Hz | Peak Area ([Protein:RNA] 0 μM): 3151271.718 | Peak Intensity ([Protein:RNA] 0 μM): 572470.95 | Fractional Occupancy ([Protein:RNA] 0 μM, 1-Ibound/I0): 0 | LW ([Protein:RNA] 0.75 μM): 4.3 Hz | Peak Area ([Protein:RNA] 0.75 μM): 2968891.536 | Peak Intensity ([Protein:RNA] 0.75 μM): 497630.81 | LW ([Protein:RNA] 1.0 μM): 4.6 Hz | Peak Area ([Protein:RNA] 1.0 μM): 2999269.636 | Peak Intensity ([Protein:RNA] 1.0 μM): 468481.06 | LW ([Protein:RNA] 1.25 μM): 5.3 Hz | Peak Area ([Protein:RNA] 1.25 μM): 2964107.303 | Peak Intensity ([Protein:RNA] 1.25 μM): 398322.72 | LW ([Protein:RNA] 1.5 μM): 5.9 Hz | Peak Area ([Protein:RNA] 1.5 μM): 3176044.761 | Peak Intensity ([Protein:RNA] 1.5 μM): 375769.97 | LW ([Protein:RNA] 1.75 μM): 6.3 Hz | Peak Area ([Protein:RNA] 1.75 μM): 3020022.312 | Peak Intensity ([Protein:RNA] 1.75 μM): 342640.49

Reference: patent US11965159B2, “Compositions and methods for regulating proteins and nucleic acids activities” (THE BROAD INSTITUTE, INC., priority 2019, dated 2024)
